The target of test [1] is T1, androgen receptor (Rattus norvegicus, UniProt P15207).
T1 sequence (P15207 1-902): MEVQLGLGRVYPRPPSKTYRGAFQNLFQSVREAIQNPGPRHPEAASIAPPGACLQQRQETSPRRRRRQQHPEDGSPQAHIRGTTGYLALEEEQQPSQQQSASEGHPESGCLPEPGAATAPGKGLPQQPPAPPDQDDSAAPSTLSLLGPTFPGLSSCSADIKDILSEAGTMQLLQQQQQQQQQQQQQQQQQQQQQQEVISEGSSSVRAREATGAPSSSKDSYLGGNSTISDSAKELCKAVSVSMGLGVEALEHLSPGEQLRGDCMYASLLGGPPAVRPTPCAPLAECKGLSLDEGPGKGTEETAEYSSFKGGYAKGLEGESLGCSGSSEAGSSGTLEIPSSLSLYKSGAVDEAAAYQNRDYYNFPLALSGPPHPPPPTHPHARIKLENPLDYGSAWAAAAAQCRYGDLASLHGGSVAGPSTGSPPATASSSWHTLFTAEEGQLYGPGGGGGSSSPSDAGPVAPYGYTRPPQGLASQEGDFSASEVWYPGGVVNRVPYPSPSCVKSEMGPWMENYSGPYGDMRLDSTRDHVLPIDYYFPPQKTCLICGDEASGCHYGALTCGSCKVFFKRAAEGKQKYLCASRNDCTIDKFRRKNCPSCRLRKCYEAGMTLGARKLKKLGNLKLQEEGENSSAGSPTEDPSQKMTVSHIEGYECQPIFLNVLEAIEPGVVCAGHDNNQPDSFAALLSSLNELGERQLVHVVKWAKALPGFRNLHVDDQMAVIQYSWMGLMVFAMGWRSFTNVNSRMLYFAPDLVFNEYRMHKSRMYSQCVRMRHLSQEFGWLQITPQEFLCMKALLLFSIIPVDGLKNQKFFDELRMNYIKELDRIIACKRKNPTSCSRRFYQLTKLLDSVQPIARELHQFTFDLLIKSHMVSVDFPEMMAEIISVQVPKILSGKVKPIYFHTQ
Description: Androgen receptor binding using rat ventral prostate cytosol. On the set-up: Male Sprague Dawley or Wistar rats (Charles River, 200-300 g) were used for each preparation; from tissue; host or cells: ventral prostate cytosol of castrated male Sprague Dawley or Wistar rats.

Test [2] concerns the target T1, androgen receptor. Description: L929 androgen receptor functional assay, adenovirus transduction. Format: cell-based. The following applies: 3 μM, L929 cells; for % Activition @ 3 μM: agonist testing (no R1881), luciferase. Also on record: expressed in transfected cells. The procedure:
L929 cells were plated in 96-well plates at 20,000 cells per well, in DMEM/F12 (GIBCO) containing 10% (v/v) charcoal-treated fetal bovine serum (Hyclone) and lacking phenol red. The plates were then incubated overnight at 37° C. in 5% (v/v) humidified CO2.
Test compound dilutions were prepared in 100% (v/v) DMSO, if necessary. Each dilution was made to 1250× the final desired assay concentration. First, 2 mL of DMEM/F12 lacking phenol red was pipetted into the wells of a 2-mL 96-well assay block. Next, 4 μL of the 1250× test compound dilutions were pipetted into each well of the assay block. The mixtures within the well were then carefully mixed by pipette.
In a 15 mL or 50 mL sterile centrifuge tube, a 2.5 nM (2.5×) dilution of R1881 (methyl-trienolone) in DMEM/F12 lacking phenol red was prepared. In a second 15 mL or 50 mL centrifuge tube a solution containing an equal volume of DMEM to the first and an equal volume of 100% (v/v) DMSO to the volume of R1881 used in the first tube was prepared.
In a 15 mL or 50 mL sterile centrifuge tube, a dilution in DMEM/F12 of the adenovirus AdEasy+rAR at an moi of 1:500 per well was prepared. The medium was removed from the 96-well plates by inversion and dried, inverted, very briefly. As soon as possible after medium removal, 40 μL of the diluted unlabeled test compound was added to each well, in duplicate. To each well designated for antagonist testing was added 40 μL of the 2.5 nM R1881 dilution to the wells for antagonist testing. To each well designated for agonist testing was added 40 μL of the DMSO dilution. Then 20 μL of the diluted adenovirus were added to all wells. The plates were incubated for 48 hours at 37° C. in 5% (v/v) humidified CO2.
To each well was added 100 μL of Steady-Glo luciferase assay substrate (Promega) and the plates were placed on a rotary shaker for 1 min. The plates were then incubated at room temperature in the dark for one hour. The contents of each well were then transferred to a white microtiter plate (Packard) and read on a Luminoskan Ascent (Thermo Lab Systems).
L929 AR percent activity was determined by testing dilutions of the test compound using a concentration of 3000 nM unless otherwise noted. L929 percent inhibition was determined by testing dilutions of the test compound using a concentration of 3000 nM. EC50s and IC50s were determined by testing serial dilutions of the test compound (usually duplicate ten half-log dilutions starting at 10 μM). Luciferase activity per well were measured and EC50s and IC50s determined by linear regression.
Representative compounds of the present invention were tested for functional activity at the androgen receptor according to the procedure described above with results as listed in Table 4.

The subject of test [3] is castrated male Sprague Dawley rats. Description: Ventral prostate and seminal vesicle weight in vivo assay. Also on record: species or system rat; key: A test compound was said to be “active” if the non weight adjusted prostate weight was ≦60 mg or ≧84 mg; they are listed herein as “inactive” as they did not meet the specified criteria defined above. The following applies: immature castrated rats, once daily for five days, usually orally 40 mg/kg, with testosterone propionate 2 mg/kg s.c. As to the method:
Immature (approximately 50 g) castrated male Sprague Dawley rats (Charles River) were treated once daily for five days with test compound (usually given orally at 40 mg/kg in a volume of 0.3 mL, in 30% cyclodextrin or 0.5% methylcellulose vehicle) and with testosterone propionate (given subcutaneously by injection at the nape of the neck at 2 mg/kg, in a volume of 0.1 mL in sesame oil). On the sixth day, the rats were euthanized by asphyxiation in carbon dioxide. Ventral prosatates and seminal vesicles were removed and their wet weights determined. Test compound activity was determined as the percent inhibition of testosterone-enhanced tissue weights, with a vehicle-treated control group set to zero percent and a testosterone alone-treated control group set to 100%.
A test compound was said to be “active” if the non weight adjusted prostate weight was ≦60 mg or ≧84 mg.

The target in test [4] is T1, androgen receptor. The test is described as follows: COS-7 whole-cell androgen receptor binding assay, adenovirus transduction. On the set-up: expressed in transfected cells. The following applies: 3 μM (3000 nM); COS-7 cells, [3H]R1881, AdEasy+rAR. As to the method:
COS-7 cells were plated in 96-well plates at 20,000 cells per well, in a solution of DMEM/F12 (GIBCO) containing 10% (v/v) charcoal-treated fetal bovine serum (Hyclone) and lacking phenol red. The cells were then incubated overnight at 37° C. in 5% (v/v) humidified CO2.
Test compound solutions were prepared by diluting the test compound in 100% (v/v) DMSO, if necessary. Each dilution yielded a solution which was 625× the final desired test concentration.
Next, 1 mL of DMEM/F12 lacking phenol red was pipetted into each of the wells of a 2-mL 96-well assay block. Then 4 μL of the 625× test compound dilutions were pipetted into each well of the assay block. The wells were carefully mixed by pipette.
In a 15 mL or 50 mL sterile centrifuge tube, a 2.5 nM dilution of tritiated methyl-trienolone in DMEM/F12 lacking phenol red ([^3H]R1881; Perkin-Elmer) was prepared.
In a 15 mL or 50 mL sterile centrifuge tube, a dilution in DMEM/F12 of the adenovirus AdEasy+rAR at a moi of 1:50 per well was prepared.
The medium was removed from the 96-well plates by inversion and the plates dried very briefly, inverted, on a sterile towel. As soon as possible after medium removal, 40 μL of the diluted test compound was added to each well, in duplicate. To each well was then added 40 μL of the 2.5 nM [^3H]R1881 and 20 μL of the diluted adenovirus. The plates were then incubated for 48 hours at 37° C. in 5% (v/v) humidified CO2.
The medium was removed from the above incubated plates by inversion and dried. Each well was then washed with 0.35 mL of 1×PBS. The PBS was then removed from the plates by inversion and the plates dried.
To each well was then added 50 μL of 0.5% (v/v) Triton X-100 (Sigma) in 1×PBS and the plates placed on a rotary shaker for 5 min. The contents of each well were then transferred to an OptiPlate-96 (Packard) scintillation plate. To each well was then added 0.2 mL of Microscint-20 (Packard) and the wells counted on a TopCount (Packard).
Percent inhibition was determined by testing dilutions of the test compound (usually duplicates of 10 μM) in the binding assay. Counts per well were measured and percents of inhibition determined. Androgen receptor binding IC50s were determined by testing serial dilutions of the test compound (usually duplicate ten half-log dilutions starting at 10 μM) in the binding assay. Counts per well were measured and IC50s determined by linear regression.
Representative compounds of the present invention were tested for binding to the androgen receptor according to the procedure described above with results as listed in Table C. Unless otherwise noted, COS binding % inhibition was determined using a concentration of 3000 nM. For compounds tested more than once, each result is listed separately in Table 3 below.

[5] abbreviates: antagonist testing with R1881, luciferase.

The structures appear in SMILES notation.

Take `CC1(C(=O)O)CN(c2ccc(C#N)c(C(F)(F)F)c2)C(=O)N1` (racemic) [Compound 5e]: the entries for the “% Inhibition @ 3 μM” value on androgen receptor [1] and at androgen receptor [2] (setting [5]) were −67% and 30%, respectively. Besides, the “% Activition @ 3 μM” value at androgen receptor [2] came to 0%. For the same compound, the “active / inactive by non weight adjusted prostate weight” value in test [3] is reported as “active”.
As for `CC1(C(=O)Nc2ccc(Cl)c(C(F)(F)F)c2)CN(c2ccc(F)cc2)C(=O)N1` (racemic) [Compound 6f], the “% Inhibition @ 3 μM” value on androgen receptor [1] was 66%; on androgen receptor [2] (setting [5]), 85%; on androgen receptor [4] it was 35%. In addition, the “% Activition @ 3 μM” value at androgen receptor [2] is 3%.
As to `CC1(C(=O)Nc2ccc(C#N)c(C(F)(F)F)c2)CN(Cc2ccc(F)cc2)C(=O)N1` (racemic) [Compound 6i], the “% Inhibition @ 3 μM” value at androgen receptor [1] is listed as 4%; on androgen receptor [2] (setting [5]), 76%; at androgen receptor [4] it was 28%. For the same compound, the “% Activition @ 3 μM” value on androgen receptor [2] amounted to 0%.
In general, inhibition refers to the change of the read-out against control, counted positive when it falls. As to `COC(=O)C1(C)CN(c2ccc(F)cc2)C(=O)N1` (stereo not shown) [Compound 4a, 1-(4-Fluoro-phenyl)-4-methyl-2-oxo-imidazolidine-4-carboxylic acid methyl ester], the inhibition at 3 µM was -57% at androgen receptor [1] and -20% at androgen receptor [2] (antagonist testing with R1881, luciferase, read-out: % Inhibition @ 3 μM). Further, the “% Activition @ 3 μM” value on androgen receptor [2] was 0%. For the same compound, the “active / inactive by non weight adjusted prostate weight” value in test [3] was “inactive”.

The record behind these values is patent publication US7531565B2, “Imidazolidin-2-one derivatives as selective androgen receptor modulators (SARMS)” (Janssen Pharmaceutica, N.V., priority 2004, dated 2009).
